# In US6468979B1, “Erythromycin derivatives with antibiotic activity” (Zambon Group S.p.A., priority 1998, dated 2002):
# What was measured:
# [1] = tested on: S. haemolyticus 161; test: In vitro antibacterial activity (MIC), broth dilution micromethod; assay type: cell-based, Staphylococcus haemolyticus; details: erythromycin-resistant strain; MHB, 37° C., 18 hours
# Procedure: (§1) The minimum inhibitory concentrations (MIC), with respect to Gram-positive bacteria (erythromycin-sensitive and -resistant strains) and Gram-negative bacteria, were determined by means of the broth-scaler dilution micromethod in twin series [National Committee for Clinical Laboratory Standards, 1990; Methods for dilution antimicrobial susceptibility tests for bacteria that grow aerobically; Approved standards M7-A2-NCCLS, Villanova, Pa.], using Mueller Hinton Broth (MHB) as culture medium.
# (§2) Azithromycin [The Merck Index, XIIth Edition, No. 946) was used as reference macrolide.
# (§3) The MIC values, expressed in μg/ml, were determined after incubating the microplates at 37° C. for 18 hours, by evaluating the lowest concentration of antibiotic capable of inhibiting bacterial growth.
# [2] = tested on: S. epidermis 60; test: as above; assay type: cell-based, Staphylococcus spp.; details: erythromycin-resistant (inducible) strain; MHB, 37° C., 18 hours
# Procedure: as §1, §2, §3
# [3] = tested on: S. specie 916; test: as above; assay type: cell-based, Staphylococcus spp.; details: erythromycin-resistant (inducible) strain; MHB, 37° C., 18 hours
# Procedure: as §1, §2, §3
# [4] = tested on: S. coag. Neg. 845; test: as above; assay type: cell-based, Staphylococcus spp.; details: erythromycin-resistant strain; MHB, 37° C., 18 hours
# Procedure: as §1, §2, §3
# [5] = tested on: S. aureus 929; test: as above; assay type: cell-based, Staphylococcus aureus; details: erythromycin-resistant strain; MHB, 37° C., 18 hours
# Procedure: as §1, §2, §3
# [6] = tested on: S. aureus 77; test: as above; assay type: cell-based, Staphylococcus aureus; details: erythromycin-resistant strain; MHB, 37° C., 18 hours
# Procedure: as §1, §2, §3
# [7] = tested on: S. pneumoniae 1035; test: as above; assay type: cell-based, Streptococcus pneumoniae; details: erythromycin-resistant strain; MHB with 5% horse serum, 37° C., 18 hours
# Procedure: as §1
# (§4) In the case of Streptococcus pneumoniae, the medium was supplemented with 5% horse serum.
# as §2, §3
# [8] = tested on: S. pneumoniae 1051; test: as above; assay type: cell-based, Streptococcus pneumoniae; details: erythromycin-resistant strain; MHB with 5% horse serum, 37° C., 18 hours
# Procedure: as §1, §4, §2, §3
# [9] = tested on: S. pneumoniae 1047; test: as above; assay type: cell-based, Streptococcus pneumoniae; details: erythromycin-resistant strain; MHB with 5% horse serum, 37° C., 18 hours
# Procedure: as §1, §4, §2, §3
# [10] = tested on: Streptococcus pyogenes C203; test: In vivo therapeutic efficacy in experimental pulmonary infection in mice; details: CD1 mice, death observed for 7 days, probit analysis; for PD50 1 hour after infection: single oral dose 1 hour after intranasal infection; for PD50 24 hours before infection: single oral dose 24 hours before intranasal infection
# Procedure: The therapeutic efficacy, expressed as the 50% protective dose (PD50), of the compounds of formula (I) was evaluated in the experimental pulmonary infection induced in mice by Streptococcus pyogenes C203.
# Charles River albino mice (strain CD1) weighing 23-25 g were used, kept in groups of 6 to a cage and fed normally with a standard diet and water ad libitum.
# A suspension of Streptococcus pyogenes C203 (equal to about 10^8 CFU) in tryptone broth (0.05 ml) was administered intranasally to each mouse, anaesthetized with a mixture of ethyl ether and chloroform.
# The compounds of formula I and the clarithromycin reference compounds were administered orally in a single dose, as a 0.5% suspension Methocel® 1 hour after the infection and 24 hours before the infection.
# Observation of the death of the mice was continued for 7 days after the infection.
# The PD50, expressed as μmol/kg, was calculated by means of probit analysis.
Compound,MIC S. haemolyticus 161 [1],MIC S. epidermis 60* [2],MIC S. specie 916* [3],MIC S. coag. Neg. 845 [4],MIC S. aureus 929 [5],MIC S. aureus 77 [6],MIC S. pneumoniae 1035 [7],MIC S. pneumoniae 1051 [8],MIC S. pneumoniae 1047 [9],PD50 1 hour after infection [10],PD50 24 hours before infection [10]
"CC[C@H]1OC(=O)[C@H](C)[C@@H](O[C@H]2C[C@@](C)(OC)[C@@H](O)[C@H](C)O2)[C@H](C)[C@@H](O[C@@H]2O[C@H](C)C[C@H](N(C)C)[C@H]2O)[C@](C)(O)C[C@@H](C)/C(=N\OCCNCCCCCCNCc2csc(-n3ccnc3)n2)[C@H](C)[C@@H](O)[C@]1(C)O [Compound 5, Erythromycin A (E)-9-[O-[2-[6-[(2-imidazol-1-ylthiazol-4-ylmethyl)amino]hexylamino]ethyl]oxime]]",>64 µg/mL,1 µg/mL,4 µg/mL,>64 µg/mL,>64 µg/mL,>64 µg/mL,4 µg/mL,2 µg/mL,4 µg/mL,,
CC[C@H]1OC(=O)[C@H](C)[C@@H](O[C@H]2C[C@@](C)(OC)[C@@H](O)[C@H](C)O2)[C@H](C)[C@@H](O[C@@H]2O[C@H](C)C[C@H](N(C)C)[C@H]2O)[C@](C)(O)C[C@@H](C)/C(=N\OCCN(C)CCCCCCNCc2csc(-n3ccnc3)n2)[C@H](C)[C@@H](O)[C@]1(C)O [Compound 6],>64 µg/mL,2 µg/mL,4 µg/mL,>64 µg/mL,>64 µg/mL,>64 µg/mL,0.5 µg/mL,0.25 µg/mL,1 µg/mL,10.1 µmol/kg,16.0 µmol/kg
"CC[C@H]1OC(=O)[C@H](C)[C@@H](O[C@H]2C[C@@](C)(OC)[C@@H](O)[C@H](C)O2)[C@H](C)[C@@H](O[C@@H]2O[C@H](C)C[C@H](N(C)C)[C@H]2O)[C@](C)(O)C[C@@H](C)/C(=N\OCCNCCCCCCNCc2csc(-n3cncn3)n2)[C@H](C)[C@@H](O)[C@]1(C)O [Compound 8, Erythromycin A (E)-9-[O-[2-[6-[(2-[1,2,4]triazol-1-ylthiazol-4-ylmethyl)amino]hexylamino]ethyl]oxime]]",>64 µg/mL,2 µg/mL,8 µg/mL,>64 µg/mL,>64 µg/mL,>64 µg/mL,4 µg/mL,1 µg/mL,2 µg/mL,,
"CC[C@H]1OC(=O)[C@H](C)[C@@H](O[C@H]2C[C@@](C)(OC)[C@@H](O)[C@H](C)O2)[C@H](C)[C@@H](O[C@@H]2O[C@H](C)C[C@H](N(C)C)[C@H]2O)[C@](C)(O)C[C@@H](C)/C(=N\OCCNCCCCCCNCc2csc(-n3cccn3)n2)[C@H](C)[C@@H](O)[C@]1(C)O [Compound 10, Erythromycin A (E)-9-[O-[2-[6-[(2-pyrazol-1-ylthiazol-4-ylmethyl)amino]hexylamino]ethyl]oxime]]",64 µg/mL,1 µg/mL,4 µg/mL,32 µg/mL,32 µg/mL,>64 µg/mL,1 µg/mL,0.25 µg/mL,0.5 µg/mL,,
"CC[C@H]1OC(=O)[C@H](C)[C@@H](O[C@H]2C[C@@](C)(OC)[C@@H](O)[C@H](C)O2)[C@H](C)[C@@H](O[C@@H]2O[C@H](C)C[C@H](N(C)C)[C@H]2O)[C@](C)(O)C[C@@H](C)/C(=N\OCCN(C)CCCCCCNCc2csc(-n3cccn3)n2)[C@H](C)[C@@H](O)[C@]1(C)O [Compound 11, Erythromycin A (E)-9-[O-[2-[methyl[6-[(2-pyrazol-1-ylthiazol-4-ylmethyl]amino]hexyl]amino]ethyl]oxime]]",>64 µg/mL,2 µg/mL,8 µg/mL,>64 µg/mL,>64 µg/mL,>64 µg/mL,0.0625 µg/mL,0.125 µg/mL,0.5 µg/mL,11.2 µmol/kg,25.4 µmol/kg
"Erythromycin A (E)-9-[O-[2-[6-[(2-[1,2,3]thiadiazol-5-ylthiazol-4-ylmethyl]amino]hexylamino]ethyl]oxime] [Compound 3]",64 µg/mL,1 µg/mL,0.5 µg/mL,64 µg/mL,64 µg/mL,>64 µg/mL,,,,4.5 µmol/kg,25.4 µmol/kg
